# Reference: patent US6481153B1, “Turf additive formulation for reduction of localized dry spots due to water repellency” (Milliken & Company, priority 2001, dated 2002)
# System: not listed separately
# Experiment: hydrophobic sand humic acid removal test
# Conditions: formulation diluted 42 parts water:1 part; 2 ml on 3 g humic acid coated sand; dried 60° C. 24 hours; 10 ml distilled water passed through; absorbance at 620 nm vs humic acid calibration curve
# Experimental: Initially, a calibrated stock solution measurement curve for humic acid itself was generated for comparison purposes with tested humic acid removal samples. Thus, a 5000 ppm Humic Acid (purchased from Fluka Chemika) stock solution was prepared by dissolving 0.5 grams of Humic acid in 100 milliliters of water. Further standard solutions were prepared by serial dilution of the 5000 ppm sandard stock solution. The absorbance of each solution was measured at 620 nm on a Beckman Model DU 650 Spectrophotometer and a plot of absorbance versus concentration provided the Humic
# The Examples, listed above, both inventive and comparative, were then each individually diluted with water (42 parts water:1 part example formulation). Two milliliters of each diluted example was then placed into the open end of a 19 inch clear plastic tube containing 3 grams of the above specific humic acid coated sand. One end was then plugged by a two-layer cheese cloth square of 1.5×1.5 cm and then the tube was situated vertically with the plugged end lower. The solutions were allowed to pass through the sand and were collected after passing through the plug. The sand was then placed in an oven at 60° C. for 24 hours to remove any residual moisture. The sand (3 grams) was again packed into a 19 inch clear plastic tube plugged at one end with the cheese cloth plug. Ten ml of distilled water was then passed through the sand and collected. The absorbance at 620 nm of the distilled water sample was then measured and compared to the humic acid calibration curve (from the Table, above) to determine the amount of humic acid removed from the coated sand. This test is, for the context of this invention, is the definition of “hydrophobic sand humic acid removal test”.
row,Compound,ppm Removed (Removal of Humic acid from Sand) [ppm]
1,"O=C([O-])CCCCCCCCC(=O)[O-].[K+].[K+] [Example 4, Potassium sebacate]",789.78
2,TPSA Di-TEA Salt [Example 8],246.46
3,TPSA Dipotassium Salt [Example 6],837.52
4,TPSA Mono-TEA Salt [Example 7],872.40
5,fully neutralized n-octenyl succinic anhydride sulfanilic sodium salt [Example 9],1015.15

# System: grass
# Experiment: not given
# Conditions: in vivo; cited from earlier work
row,Compound,phytotoxicity to grass
1,[Na+].[OH-] [sodium hydroxide],highly phytotoxic
